Drawing on ChEMBL document CHEMBL1201862, “PubChem BioAssay data set” (2004), this text covers IC50, EC50 and AC50 for four compounds.

The source made the active and inactive calls.

For assay [1], the target named is Transitional endoplasmic reticulum ATPase (Homo sapiens, UniProt P55072, C522A). The experiment in a line: C522A mutant p97 ATPase inhibitors, dose response, counter-screen for p97 inhibitor project, biochemical, luminescence (AID 1544). In general terms: A counterscreen serves to expose hits that act by an unwanted route or on another target.
Assay [2] concerns the target T1, RNA-binding protein pos-1 (Caenorhabditis elegans, UniProt G5EF15).
T1 sequence (G5EF15 whole entry): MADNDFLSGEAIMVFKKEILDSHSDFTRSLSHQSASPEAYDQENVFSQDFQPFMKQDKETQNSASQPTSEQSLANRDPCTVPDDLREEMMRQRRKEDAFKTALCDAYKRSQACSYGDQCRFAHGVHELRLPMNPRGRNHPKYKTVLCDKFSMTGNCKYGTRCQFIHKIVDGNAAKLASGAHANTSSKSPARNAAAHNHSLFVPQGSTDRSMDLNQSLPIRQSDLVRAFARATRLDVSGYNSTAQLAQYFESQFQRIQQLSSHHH
In words: disruptors of C. elegans POS-1 RNA interaction – biochemical, fluorescence polarization, dose response (AID 1964).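 Further: purified POS-1 fused to maltose binding protein made in E. coli; potency of compounds blocking POS-1 binding to fluorescent RNA.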

Assay [3] has as its target T2, Apoptotic protease-activating factor 1 (Homo sapiens, UniProt O14727).
T2 sequence (O14727 whole entry): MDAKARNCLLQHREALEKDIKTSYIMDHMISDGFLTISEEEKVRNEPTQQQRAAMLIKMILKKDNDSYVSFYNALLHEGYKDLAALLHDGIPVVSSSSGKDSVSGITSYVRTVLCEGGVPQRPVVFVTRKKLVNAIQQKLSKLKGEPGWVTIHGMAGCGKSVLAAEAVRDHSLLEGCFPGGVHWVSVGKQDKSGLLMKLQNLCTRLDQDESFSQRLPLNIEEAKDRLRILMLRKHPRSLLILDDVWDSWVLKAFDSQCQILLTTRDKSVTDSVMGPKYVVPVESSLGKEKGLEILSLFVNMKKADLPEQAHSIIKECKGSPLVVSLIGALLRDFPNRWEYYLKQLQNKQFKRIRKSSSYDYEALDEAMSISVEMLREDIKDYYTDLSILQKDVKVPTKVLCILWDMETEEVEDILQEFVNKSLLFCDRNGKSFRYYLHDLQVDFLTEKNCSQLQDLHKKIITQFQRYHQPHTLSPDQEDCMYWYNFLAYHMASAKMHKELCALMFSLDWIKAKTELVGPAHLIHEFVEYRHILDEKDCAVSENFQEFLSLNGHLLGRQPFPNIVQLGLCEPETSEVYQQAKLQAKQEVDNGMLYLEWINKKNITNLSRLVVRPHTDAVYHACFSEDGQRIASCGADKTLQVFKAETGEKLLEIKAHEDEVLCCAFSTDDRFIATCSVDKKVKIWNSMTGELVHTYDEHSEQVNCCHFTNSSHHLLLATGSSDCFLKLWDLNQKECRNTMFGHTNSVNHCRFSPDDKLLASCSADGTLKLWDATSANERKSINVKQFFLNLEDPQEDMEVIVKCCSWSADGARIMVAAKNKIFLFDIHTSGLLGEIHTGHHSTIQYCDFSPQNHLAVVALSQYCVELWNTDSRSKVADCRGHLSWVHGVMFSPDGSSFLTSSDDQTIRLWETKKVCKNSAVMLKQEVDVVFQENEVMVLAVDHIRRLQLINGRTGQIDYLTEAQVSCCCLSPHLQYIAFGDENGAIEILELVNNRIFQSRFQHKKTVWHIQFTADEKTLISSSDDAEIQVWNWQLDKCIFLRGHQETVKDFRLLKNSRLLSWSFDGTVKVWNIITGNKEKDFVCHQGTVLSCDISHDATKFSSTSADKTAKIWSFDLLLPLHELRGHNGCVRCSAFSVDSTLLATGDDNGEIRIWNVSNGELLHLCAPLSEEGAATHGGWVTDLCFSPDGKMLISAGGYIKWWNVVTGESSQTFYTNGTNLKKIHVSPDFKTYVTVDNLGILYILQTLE
It is filed as functional.

For assay [4], the target named is T3, Mannose-6-phosphate isomerase (Homo sapiens, UniProt P34949).
T3 sequence (P34949 whole entry): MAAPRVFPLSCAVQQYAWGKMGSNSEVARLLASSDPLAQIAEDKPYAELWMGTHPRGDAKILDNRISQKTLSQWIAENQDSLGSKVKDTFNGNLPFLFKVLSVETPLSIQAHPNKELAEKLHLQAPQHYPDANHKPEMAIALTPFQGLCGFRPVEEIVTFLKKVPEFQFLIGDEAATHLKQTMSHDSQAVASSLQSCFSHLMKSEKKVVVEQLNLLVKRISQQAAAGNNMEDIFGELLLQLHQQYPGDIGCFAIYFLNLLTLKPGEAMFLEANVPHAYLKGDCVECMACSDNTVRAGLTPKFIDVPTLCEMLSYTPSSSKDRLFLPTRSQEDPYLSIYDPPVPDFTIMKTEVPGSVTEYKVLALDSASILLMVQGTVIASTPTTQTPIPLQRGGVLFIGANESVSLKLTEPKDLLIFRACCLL
In words: MPI inhibition at elevated mannose 6-phosphate – biochemical, fluorescence intensity, high mannose 6-phosphate, primary screen (AID 1220).

Assay [5] has as its target T4, Rac GTPase-activating protein 1 (Homo sapiens, UniProt Q9H0H5).
T4 sequence (Q9H0H5 whole entry): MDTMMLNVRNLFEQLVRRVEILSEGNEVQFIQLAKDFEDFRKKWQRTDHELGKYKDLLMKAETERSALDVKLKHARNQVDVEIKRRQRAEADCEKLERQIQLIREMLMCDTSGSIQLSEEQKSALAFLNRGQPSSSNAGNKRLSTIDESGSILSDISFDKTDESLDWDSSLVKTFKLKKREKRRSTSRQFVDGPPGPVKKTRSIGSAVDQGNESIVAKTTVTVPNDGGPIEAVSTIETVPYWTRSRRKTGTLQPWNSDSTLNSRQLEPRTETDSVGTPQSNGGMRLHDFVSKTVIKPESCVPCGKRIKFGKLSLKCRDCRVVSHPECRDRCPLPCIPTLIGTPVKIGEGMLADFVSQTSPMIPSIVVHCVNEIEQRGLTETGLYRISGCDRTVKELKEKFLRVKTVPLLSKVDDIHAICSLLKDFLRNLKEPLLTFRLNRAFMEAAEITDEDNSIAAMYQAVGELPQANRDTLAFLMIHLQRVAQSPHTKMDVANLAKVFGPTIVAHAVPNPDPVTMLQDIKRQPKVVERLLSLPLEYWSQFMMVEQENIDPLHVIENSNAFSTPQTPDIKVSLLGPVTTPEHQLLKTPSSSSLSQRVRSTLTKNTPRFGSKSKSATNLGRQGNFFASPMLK
In words: blockers of MgcRacGAP-driven Rac1 GTP hydrolysis – biochemical, ADP Hunter fluorescence, primary and confirmatory, confirmation (AID 624330). It is filed as functional.

Assay [6] can be described thus: loss of viability in HepG2 cells – cell-based, CellTiter-Glo, cherry-picked, cytotoxicity control for Shn3 inhibitor project, dose response (AID 624134). It is filed as functional. On the technique in general: ATP-based viability assays read luminescence as a measure of living cells.
Assay [7] is described as follows: NIH-3T3 fibroblast cytotoxicity, dose response, cytotoxicity control, cell-based, fluorescence, Alamar Blue, secondary assay (AID 2327).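 Further: NIH-3T3 mouse fibroblasts cultured with fluconazole at 8 µg/mL.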 It is filed as functional. In general terms: The colour change of resazurin is a common sign of viable cells or microbes.
The target of assay [8] is ATP-dependent molecular chaperone HSP82 (Candida albicans (strain WO-1) (Yeast), UniProt C4YTQ8). In words: steroid-induced GRE reporter decrease in yeast – S. cerevisiae, luminescence, Hsp90 inhibitor project, dose response (AID 2400).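 Further: beta-galactosidase luminescence from glucocorticoid response element reporter as proxy for Hsp90 function; inhibitor potency where signal loss means Hsp90 inhibition.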 It is filed as functional, cell-based.
For the next assay, the system named is BJ. The experiment in a line: cells. It is filed as functional, cell-based. The following applies: Homo sapiens.

Broadly, the IC50 is the concentration at which inhibition is half-maximal. By EC50 is commonly meant the concentration at which the effect is half-maximal. What is called AC50 is the midpoint of the concentration-response curve, whichever way the signal moves.

Chain of Transitional endoplasmic reticulum ATPase (P55072 2-806 C522A limits assumed): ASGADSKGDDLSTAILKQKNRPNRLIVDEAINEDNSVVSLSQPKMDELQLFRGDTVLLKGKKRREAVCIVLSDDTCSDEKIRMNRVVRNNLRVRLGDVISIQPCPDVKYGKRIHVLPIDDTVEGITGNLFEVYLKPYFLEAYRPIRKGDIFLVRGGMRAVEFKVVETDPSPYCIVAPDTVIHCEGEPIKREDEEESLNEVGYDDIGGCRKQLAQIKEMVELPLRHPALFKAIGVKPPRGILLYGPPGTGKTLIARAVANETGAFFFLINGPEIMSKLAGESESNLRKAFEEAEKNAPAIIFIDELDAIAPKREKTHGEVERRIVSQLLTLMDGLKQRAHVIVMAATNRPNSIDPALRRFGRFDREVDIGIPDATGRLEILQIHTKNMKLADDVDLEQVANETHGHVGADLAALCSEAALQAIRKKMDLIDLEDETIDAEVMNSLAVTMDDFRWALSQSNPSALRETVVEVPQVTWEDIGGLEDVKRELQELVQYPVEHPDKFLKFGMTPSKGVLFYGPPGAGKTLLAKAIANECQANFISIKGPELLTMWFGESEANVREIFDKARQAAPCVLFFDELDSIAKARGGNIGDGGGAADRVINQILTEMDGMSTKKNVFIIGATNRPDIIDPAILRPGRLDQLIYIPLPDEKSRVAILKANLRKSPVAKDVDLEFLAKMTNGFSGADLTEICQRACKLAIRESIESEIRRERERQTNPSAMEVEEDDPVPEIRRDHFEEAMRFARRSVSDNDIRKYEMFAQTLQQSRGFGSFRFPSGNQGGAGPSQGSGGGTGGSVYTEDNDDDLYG
Chain of ATP-dependent molecular chaperone HSP82 (C4YTQ8 whole entry): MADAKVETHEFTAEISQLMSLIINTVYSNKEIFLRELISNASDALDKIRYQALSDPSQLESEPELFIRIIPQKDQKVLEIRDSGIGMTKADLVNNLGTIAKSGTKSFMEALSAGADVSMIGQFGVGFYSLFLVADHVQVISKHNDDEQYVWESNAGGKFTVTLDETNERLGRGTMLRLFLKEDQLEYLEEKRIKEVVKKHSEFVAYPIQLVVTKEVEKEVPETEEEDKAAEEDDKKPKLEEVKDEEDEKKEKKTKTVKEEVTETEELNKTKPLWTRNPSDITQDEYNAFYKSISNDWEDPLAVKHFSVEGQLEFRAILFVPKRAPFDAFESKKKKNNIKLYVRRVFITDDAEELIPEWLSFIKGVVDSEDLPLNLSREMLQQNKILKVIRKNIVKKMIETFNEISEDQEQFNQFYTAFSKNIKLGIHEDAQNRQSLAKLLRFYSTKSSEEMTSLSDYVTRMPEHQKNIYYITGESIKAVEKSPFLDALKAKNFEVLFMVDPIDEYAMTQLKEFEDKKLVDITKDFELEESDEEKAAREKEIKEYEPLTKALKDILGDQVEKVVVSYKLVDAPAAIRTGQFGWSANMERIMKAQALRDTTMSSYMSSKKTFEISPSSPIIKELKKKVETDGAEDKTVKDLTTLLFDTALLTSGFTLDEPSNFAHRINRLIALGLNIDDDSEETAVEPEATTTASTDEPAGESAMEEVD

In the case of `Cn1nc(-c2ccc(Cl)cc2)nc2c(=O)n(C)c(=O)nc1-2`, in assay [1], the 50% inhibitory concentration (IC50) is reported as > 50 µM (not active). The EC50 in [2] was 17.6 µM (active).

With `CCCCNc1cc(NC(C)=O)cc2cc(OC)c(OC)cc12`, the results for the IC50 in assay [3], in assay [4] and in assay [5] were 3.62 µM (active), > 50 µM (not active) and 39.5 µM (active), respectively.

On to `COc1ccc(C(NC(=O)C(C)C)c2ccc3cccnc3c2O)cc1` (centres undefined), for which the half-maximal activity concentration (AC50) in assay [6] was 1.27 µM (active). Besides, the results for the EC50 in assay [7] and in [8] were 40.1 µM (active) and 52.4 µM (active), respectively.

For the compound `O=C(Cc1ccc([N+](=O)[O-])cc1)N/N=C/c1ccc([N+](=O)[O-])o1`, the half-maximal effective concentration (EC50) in the assay with BJ was 15.6 µM (active).
